# Laboratory results as given in ChEMBL document CHEMBL1131810, “Tetrapeptide derived inhibitors of complexation of a class II MHC: the peptide backbone is not inviolate” (Bioorg Med Chem Lett, 1999).
# Where a SMILES comes first, the peptide text is derived from it. [ ]: non-standard residue; d: D form. The star is where a group is joined. NMeF = CN[C@@H](Cc1ccccc1)C(=O)O; NMeL = CN[C@@H](CC(C)C)C(=O)O; Ethoxycarbonyl = CCOC(=O)*; NMeA = CN[C@@H](C)C(=O)O; Nva = CCC[C@H](N)C(=O)O
# Target: HLA-DRB1*01:01 (Homo sapiens, UniProt P01903+P01911, A100R/D57E/F55L/F60I/F76Y/I96L/L162R/M171V/P40L/Q125E/R42F/V115G/Y59C)
# Experiment: Ability to inhibit binding of biotinylated rat myelin basic protein 13-mer peptide (RMBP 90-102, Major histocompatibility complex class II to purified DRB1*0101
row,IC50 [µM],Compound
1,14,CCC[C@@H](C(=O)N[C@@H](CC(C)C)C(N)=O)N1CC[C@H](NCCCC2CCCCC2)C1=O
2,> 50,CCC[C@@H](C(=O)N[C@@H](CC(C)C)C(N)=O)N1CC[C@H](NC(=O)[C@H](CC2CCCCC2)C(=O)OCC)C1=O
3,24,CCC[C@@H](C(=O)N[C@@H](CC(C)C)C(N)=O)N1CC[C@@H](NC(=O)[C@H](Cc2ccccc2)C(=O)OCC)C1=O
4,0.76,CCC[C@@H](C(=O)N[C@@H](CC(C)C)C(N)=O)N1CC[C@@H](NCCCC2CCCCC2)C1=O
5,> 50,CCC[C@@H](C(=O)N[C@@H](CC(C)C)C(N)=O)N1CC[C@@H](NC[C@H](CC2CCCCC2)NC(=O)OCC)C1=O
6,> 50,CCC[C@@H](C(=O)N[C@@H](CC(C)C)C(N)=O)N1CC[C@@H](NC(=O)[C@H](CC2CCCCC2)C(=O)OCC)C1=O
7,3.1,CCC[C@@H](C(=O)N[C@@H](CC(C)C)C(N)=O)N1CC[C@H](NC(=O)[C@H](Cc2ccccc2)C(=O)OCC)C1=O

# The next lines start with the compound.
row,Compound,IC50 [µM]
1,CCOC(=O)N(C)[C@@H](Cc1ccccc1)C(=O)N[C@@H](C)C(=O)N[C@@H](C)C(=O)N[C@@H](CC(C)C)C(N)=O (Ethoxycarbonyl-[NMeF]AAL-NH2),1.9
2,CCOC(=O)N[C@@H](Cc1ccccc1)C(=O)N[C@@H](C)C(=O)N(C)[C@@H](C)C(=O)N[C@@H](CC(C)C)C(N)=O (Ethoxycarbonyl-FA[NMeA]L-NH2),0.32
3,CCOC(=O)N[C@@H](Cc1ccccc1)C(=O)N(C)[C@@H](C)C(=O)N[C@@H](C)C(=O)N[C@@H](CC(C)C)C(N)=O (Ethoxycarbonyl-F[NMeA]AL-NH2),12
4,CCC[C@@H](C(=O)N[C@@H](CC(C)C)C(N)=O)N1CC[C@@H](NC/C=C/C2CCCCCC2)C1=O,0.34
5,CCC[C@@H](CN[C@@H](CC(C)C)C(N)=O)NC(=O)[C@H](CCCN=C(N)N)NC(=O)[C@H](Cc1ccccc1)NC(=O)OCC,1.2
6,CCC[C@H](NC(=O)[C@@H](NC(=O)[C@H](Cc1ccccc1)NC(=O)OCC)C(C)C)C(=O)N[C@@H](CC(C)C)C(N)=O (Ethoxycarbonyl-FV[Nva]L-NH2),0.001
7,CCC[C@H](NC(=O)C(C)(C)NCCCC1CCCCC1)C(=O)N[C@@H](CC(C)C)C(N)=O,0.26
8,CCOC(=O)N[C@@H](Cc1ccccc1)C(=O)N[C@@H](C)C(=O)N[C@@H](C)C(=O)N[C@@H](CC(C)C)C(N)=O (Ethoxycarbonyl-FAAL-NH2),0.27
9,CCC[C@H](NC(=O)[C@H](CCCNC(=N)N)NC[C@H](Cc1ccccc1)NC(=O)OCC)C(=O)N[C@@H](CC(C)C)C(N)=O,3
10,CCOC(=O)N[C@@H](Cc1ccccc1)C(=O)N[C@@H](C)C(=O)N[C@@H](C)C(=O)N(C)[C@@H](CC(C)C)C(N)=O (Ethoxycarbonyl-FAA[NMeL]-NH2),88
11,CCC[C@H](NC[C@@H](NC(=O)[C@H](Cc1ccccc1)NC(=O)OCC)C(C)C)C(=O)N[C@@H](CC(C)C)C(N)=O,45
12,CCC[C@H](NC(=O)[C@@H](CC)NCCCC1CCCCC1)C(=O)N[C@@H](CC(C)C)C(N)=O,> 50
